{"source": "patent US20210316010A1", "about": "“DRUG DELIVERY PRODUCT, COMPOSITION AND SYSTEM” (MASTER DYNAMIC LIMITED, priority 2018, published 2021)", "key": {"SAS MCTS": {"test_system": "SAS MCTS", "assay": "Penetration and distribution in SAS multicellular tumor spheroids (MCTS), confocal microscopy", "format": "cell-based, Human", "conditions": "after 1 day of incubation", "experimental": "In order to investigate the penetration of DOX with different formulations (ND-DOX and ND-HSA-DOX) in tissue model in vitro, SAS MCTS were used to incubate with ND, free DOX, ND-DOX and ND-HSA-DOX.\nThe ND and DOX with different formulations complex uptake and distribution in SAS MCTS model was monitored by using CLSM.\nThe cell nuclei were stained with Hoechst […] which emits blue fluorescence (440 nm-484 nm), cell membrane were dyed with 3,3′-dipentyloxacarbocyanine iodide (DIOC'5), and the signal was collected in the 520-555 nm range, shown in red color.\nIn order to promote the multicellular tumor spheroids (MCTS) formation, SAS cells were seeded in Gravity TRAP ULA Plate, by Insphero, at a density of 5,000 cells per well and cultured at 37° C. with 5% CO2 for 3 days before drug treatment.\nFor the distributions of ND, DOX, ND-DOX and ND-HSA-DOX within MCTS were determined by confocal laser microscopy.\nSAS MCTS were treated with ND, DOX, ND-DOX and ND-HSA-DOX for 4 days. Each day, one of treatment MCTS was harvested and fixed with 3.7% formaldehyde for 24 h. Washing the MCTS 3 time with PBS, and MCTS was incubated with DIOC'5 for 24 h. After washing 3 times, Hoechst 33342 was incubated with MCTS for 24 h. Then MCTS was observed by confocal microscopy."}, "HeLa cells": {"test_system": "HeLa cells", "conditions": "treatment for 5 h; cited from earlier work"}, "SAS cells": {"test_system": "SAS cells", "assay": "Monolayer 2D SAS cellular uptake, confocal laser scanning microscopy", "format": "cell-based, Human", "conditions": "4 hrs incubation, DOX 20 μg/ml", "from_the_text": "Intracellular trafficking and distribution of DOX within SAS cells were used to further investigate the outcomes, by using confocal laser scanning microscopy (CLSM), as shown in the images of FIGS. 21 and 21I.\nThe 50 nm ND fluorescence was excited with 488 nm, and collected in range 500-515 nm. The ND's fluorescence in this range corresponds predominantly to emission from diamond H^3 defect centers with emission peak near 505 nm, shown as green colour 206. The bright fields as evidenced, were also provided to reveal the morphologies of SAS cells.\nHuman Oral Squamous Carcinoma cell (SAS) cells were cultured in DMEM medium (Gibco, Invitrogen, UK). The medium was supplemented with 2 mM L-glutamine (Invitrogen, USA), 1.5 g/L sodium bicarbonate (Sigma, UK), 10% fetal bovine serum (Gibco/Life Technologies, Carlsbad, Calif., USA).\nCells were maintained under standard cell culture conditions in an incubator (Galaxy 170S, Eppendorf, USA) containing 95% air and 5% CO2 at 37° C. humid environment.\nCulture medium was replaced with a fresh medium every 48 or 72 hr. […]\nUnreacted samples were removed by washing. […] The emission of DOX was absorbed at 570-590 nm and ND was detected at 500-515 nm."}}}
{"smiles": "COc1cccc2c1C(=O)c1c(O)c3c(c(O)c1C2=O)C[C@@](O)(C(=O)CO)C[C@@H]3O[C@H]1C[C@H](N)[C@H](O)[C@H](C)O1.Cl", "note": "[DOX, doxorubicin hydrochloride]", "values": [{"measurement": "penetration in SAS MCTS", "setting": "SAS MCTS", "result": "limited to the outer cell layers"}, {"measurement": "intracellular location of DOX", "setting": "HeLa cells", "result": "located in nuclear of HeLa cells"}, {"measurement": "intracellular distribution of DOX", "setting": "SAS cells", "result": "distributed on cytoplasm"}]}
